Results published in patent publication US20250382287A1, “PHARMACEUTICALLY ACCEPTABLE SALT AND CRYSTAL FORM OF NITROGEN-CONTAINING BRIDGE HETEROCYCLIC DERIVATIVE, AND METHOD FOR PREPARING SAME” (JIANGSU HENGRUI PHARMACEUTICALS CO., LTD., priority 2022, published 2025).

What was measured:
[1] = target: T1, Factor B enzyme (recombinant human complement factor B protein, as CVF:Bb complex) (Homo sapiens, UniProt P00751); settings: biological evaluation in Application No. WO2022143845; cited from earlier work
T1 construct: host or cells: HD CHO-S cells, pcDNA3.4 vector
T1 sequence (P00751 260-764 limits assumed): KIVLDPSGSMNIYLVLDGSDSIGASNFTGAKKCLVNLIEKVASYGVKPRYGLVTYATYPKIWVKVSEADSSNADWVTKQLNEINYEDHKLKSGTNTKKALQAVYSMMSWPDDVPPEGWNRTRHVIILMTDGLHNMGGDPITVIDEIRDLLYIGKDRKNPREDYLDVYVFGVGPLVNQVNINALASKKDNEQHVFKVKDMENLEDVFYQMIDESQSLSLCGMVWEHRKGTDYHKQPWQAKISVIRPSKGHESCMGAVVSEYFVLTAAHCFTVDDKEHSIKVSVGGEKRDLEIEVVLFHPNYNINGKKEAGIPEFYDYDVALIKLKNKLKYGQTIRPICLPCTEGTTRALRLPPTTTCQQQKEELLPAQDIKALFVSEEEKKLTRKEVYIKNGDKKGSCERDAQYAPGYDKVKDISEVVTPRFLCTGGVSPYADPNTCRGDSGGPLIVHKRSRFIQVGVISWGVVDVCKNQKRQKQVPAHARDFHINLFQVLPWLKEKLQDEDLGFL
T1 sequence (Q91132 23-649 partner limits assumed): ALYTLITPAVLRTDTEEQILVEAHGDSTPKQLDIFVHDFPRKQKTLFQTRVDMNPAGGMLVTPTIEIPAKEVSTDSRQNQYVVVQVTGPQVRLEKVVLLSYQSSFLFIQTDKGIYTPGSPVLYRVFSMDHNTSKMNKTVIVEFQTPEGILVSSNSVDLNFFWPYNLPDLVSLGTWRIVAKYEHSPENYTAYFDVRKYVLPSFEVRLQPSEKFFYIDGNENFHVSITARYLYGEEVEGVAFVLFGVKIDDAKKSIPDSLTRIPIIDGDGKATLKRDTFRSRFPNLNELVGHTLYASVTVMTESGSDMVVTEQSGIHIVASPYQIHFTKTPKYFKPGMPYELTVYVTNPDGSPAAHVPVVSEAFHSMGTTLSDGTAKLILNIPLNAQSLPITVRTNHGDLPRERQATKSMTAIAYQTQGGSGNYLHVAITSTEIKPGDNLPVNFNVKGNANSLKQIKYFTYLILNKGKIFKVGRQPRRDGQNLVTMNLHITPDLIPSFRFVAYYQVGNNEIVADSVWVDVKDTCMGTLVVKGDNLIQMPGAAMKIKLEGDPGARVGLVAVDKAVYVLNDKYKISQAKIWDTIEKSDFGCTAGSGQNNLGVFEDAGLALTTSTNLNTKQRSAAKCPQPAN
T1 sequence (Q91132 733-984 partner limits assumed): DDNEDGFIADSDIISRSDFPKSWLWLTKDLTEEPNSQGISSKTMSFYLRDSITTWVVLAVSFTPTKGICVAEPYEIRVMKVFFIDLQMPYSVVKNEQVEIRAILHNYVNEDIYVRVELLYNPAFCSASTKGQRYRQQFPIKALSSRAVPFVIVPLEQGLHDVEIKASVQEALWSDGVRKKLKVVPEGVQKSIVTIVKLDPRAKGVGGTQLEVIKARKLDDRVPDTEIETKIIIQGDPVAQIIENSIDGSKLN
T1 sequence (Q91132 1264-1642 partner limits assumed): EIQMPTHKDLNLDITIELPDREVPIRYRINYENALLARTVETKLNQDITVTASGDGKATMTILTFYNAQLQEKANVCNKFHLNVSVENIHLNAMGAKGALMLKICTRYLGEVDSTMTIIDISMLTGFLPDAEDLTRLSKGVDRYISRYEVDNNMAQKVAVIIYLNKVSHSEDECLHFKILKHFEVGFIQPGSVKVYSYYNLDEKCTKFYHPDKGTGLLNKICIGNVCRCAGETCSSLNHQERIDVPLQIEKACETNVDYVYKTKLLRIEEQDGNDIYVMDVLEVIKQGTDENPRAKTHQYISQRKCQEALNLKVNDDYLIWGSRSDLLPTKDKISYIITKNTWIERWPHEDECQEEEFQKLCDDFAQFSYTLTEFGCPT

[2] = Long-term/accelerated stability (sealed, 25° C./60% RH and 40° C./75% RH); settings: for chemical stability / physical stability: 25° C./60% RH and 40° C./75% RH
[3] = Influencing factor stability (open flasks, light, high temperature, high humidity, 30 days); settings: for chemical stability under high humidity conditions: high humidity conditions only; for physical stability: light exposure (4500 Lux), 40° C. and 60° C., high humidity RH 75% and 92.5%
[4] = DVS (dynamic vapor sorption) hygroscopicity testing; type: physicochemical; settings: for hygroscopic weight gain under normal storage conditions / hygroscopic weight gain under accelerated experimental conditions / hygroscopic weight gain under extreme conditions: DVS; for hygroscopic weight gain under normal storage conditions: 25° C. and 60% RH; for hygroscopic weight gain under accelerated experimental conditions: 70% RH; for hygroscopic weight gain under extreme conditions: 90% RH; for crystal form re-identification after DVS testing: XRPD after DVS
Experimental: DVS refers to dynamic vapor sorption: Surface Measurement Systems instrinsic was adopted; the humidity started at 50%, the humidity range investigated was 0%-95%, and the humidity was increased in increments of 10%; the criterion was that each gradient mass change dM/dT is less than 0.002%, TMAX 360 min, two cycles.

[5] = 25° C., 60% RH, sealed, 1 month
[6] = 25° C., 60% RH, sealed, 2 months
[7] = 25° C., 60% RH, sealed, 3 months
[8] = 25° C., 60% RH, sealed, 6 months
[9] = 40° C., 75% RH, sealed, 1 month
[10] = 40° C., 75% RH, sealed, 2 months
[11] = 40° C., 75% RH, sealed, 3 months
[12] = 40° C., 75% RH, sealed, 6 months
[13] = Light exposure (4500 Lux), 5 days, open flask
[14] = Light exposure (4500 Lux), 10 days, open flask
[15] = Light exposure (4500 Lux), 30 days, open flask

CCO[C@H]1C[C@H]2CC[C@@](c3ccc(C(=O)O)cc3)(C1)N2Cc1c(OC)cc(C)c2[nH]ccc12 [compound I, 4-((1S,3S,5R)-3-ethoxy-8-((5-methoxy-7-methyl-1H-indol-4-yl)methyl)-8-azabicyclo[3.2.1]octan-1-yl)benzoic acid]
relatively good inhibitory effect: inhibitory effect on the enzyme activity of Factor B [1]

CCO[C@H]1C[C@H]2CC[C@@](c3ccc(C(=O)O)cc3)(C1)N2Cc1c(OC)cc(C)c2[nH]ccc12.Cl [crystal form II of the hydrochloride, 4-((1S,3S,5R)-3-ethoxy-8-((5-methoxy-7-methyl-1H-indol-4-yl)methyl)-8-azabicyclo[3.2.1]octan-1-yl)benzoic acid-hydrochloride]
did not change: crystal form re-identification after DVS testing [4]
about 4.28%: hygroscopic weight gain under accelerated experimental conditions [4]
about 5.00%: hygroscopic weight gain under extreme conditions [4]
97.4%: Purity % ([3]; 60° C., 30 days, open flask)
99.2%: Purity % [3, 14]
good: chemical stability ([2]; 6 months) | physical stability ([2]; 6 months) | chemical stability under high humidity conditions ([3]; 30 days) | physical stability ([3]; 30 days)
98.8%: Purity % ([3]; 60° C., 10 days, open flask)
99.8%: Purity % [3, 13]
about 3.93%: hygroscopic weight gain under normal storage conditions [4]
99.9%: Purity % [2, 11] | Purity % [2, 12]
100.0%: Purity % [2, 5] | Purity % [2, 6] | Purity % [2, 7] | Purity % [2, 8] | Purity % [2, 9] | Purity % [2, 10] | Purity % ([2]; Initial) | Purity % ([3]; 75% RH, 5 days, open flask) | Purity % ([3]; 75% RH, 10 days, open flask) | Purity % ([3]; 75% RH, 30 days, open flask) | Purity % ([3]; 92.5% RH, 5 days, open flask) | Purity % ([3]; 92.5% RH, 10 days, open flask) | Purity % ([3]; 92.5% RH, 30 days, open flask) | Purity % ([3]; Initial, 0 days)
White solid: Color and state ([3]; 40° C., 5 days, open flask) | Color and state ([3]; 40° C., 10 days, open flask) | Color and state ([3]; 40° C., 30 days, open flask) | Color and state ([3]; 60° C., 5 days, open flask) | Color and state ([3]; 60° C., 10 days, open flask) | Color and state ([3]; 60° C., 30 days, open flask) | Color and state ([3]; 75% RH, 5 days, open flask) | Color and state ([3]; 75% RH, 10 days, open flask) | Color and state ([3]; 75% RH, 30 days, open flask) | Color and state ([3]; 92.5% RH, 5 days, open flask) | Color and state ([3]; 92.5% RH, 10 days, open flask) | Color and state ([3]; 92.5% RH, 30 days, open flask) | Color and state ([3]; Initial, 0 days) | Color and state [3, 13] | Color and state [3, 14] | Color and state [3, 15]
No change: Salt form [2, 7] | Salt form [2, 8] | Salt form ([3]; 40° C., 5 days, open flask) | Salt form ([3]; 40° C., 10 days, open flask) | Salt form ([3]; 40° C., 30 days, open flask) | Salt form ([3]; 60° C., 5 days, open flask) | Salt form ([3]; 60° C., 10 days, open flask) | Salt form ([3]; 60° C., 30 days, open flask) | Salt form ([3]; 75% RH, 5 days, open flask) | Salt form ([3]; 75% RH, 10 days, open flask) | Salt form ([3]; 75% RH, 30 days, open flask) | Salt form ([3]; 92.5% RH, 5 days, open flask) | Salt form ([3]; 92.5% RH, 10 days, open flask) | Salt form ([3]; 92.5% RH, 30 days, open flask) | Salt form [3, 13] | Salt form [3, 14] | Salt form [3, 15]
Crystal form: Salt form ([3]; Initial, 0 days)
98.6%: Purity % ([3]; 40° C., 30 days, open flask)
99.3%: Purity % ([3]; 40° C., 10 days, open flask)
99.4%: Purity % ([3]; 40° C., 5 days, open flask) | Purity % ([3]; 60° C., 5 days, open flask)
96.5%: Purity % [3, 15]

CCO[C@H]1C[C@H]2CC[C@@](c3ccc(C(=O)O)cc3)(C1)N2Cc1c(OC)cc(C)c2[nH]ccc12.Cl [crystal form III of the hydrochloride, 4-((1S,3S,5R)-3-ethoxy-8-((5-methoxy-7-methyl-1H-indol-4-yl)methyl)-8-azabicyclo[3.2.1]octan-1-yl)benzoic acid-hydrochloride]
White solid: Color and state ([3]; 40° C., 5 days, open flask) | Color and state ([3]; 40° C., 10 days, open flask) | Color and state ([3]; 40° C., 30 days, open flask) | Color and state ([3]; 60° C., 5 days, open flask) | Color and state ([3]; 60° C., 10 days, open flask) | Color and state ([3]; 60° C., 30 days, open flask) | Color and state ([3]; 75% RH, 5 days, open flask) | Color and state ([3]; 75% RH, 10 days, open flask) | Color and state ([3]; 75% RH, 30 days, open flask) | Color and state ([3]; 92.5% RH, 5 days, open flask) | Color and state ([3]; 92.5% RH, 10 days, open flask) | Color and state ([3]; 92.5% RH, 30 days, open flask) | Color and state ([3]; Initial, 0 days) | Color and state [3, 13] | Color and state [3, 14] | Color and state [3, 15]
99.0%: Purity % ([3]; 40° C., 30 days, open flask)
about 2.960%: hygroscopic weight gain under accelerated experimental conditions [4]
about 4.5700%: hygroscopic weight gain under extreme conditions [4]
98.5%: Purity % ([3]; 60° C., 30 days, open flask)
99.2%: Purity % [3, 13]
did not change: crystal form re-identification after DVS testing [4]
about 2.57%: hygroscopic weight gain under normal storage conditions [4]
Crystal form: Salt form ([3]; Initial, 0 days)
No change: Salt form ([3]; 40° C., 5 days, open flask) | Salt form ([3]; 40° C., 10 days, open flask) | Salt form ([3]; 40° C., 30 days, open flask) | Salt form ([3]; 60° C., 5 days, open flask) | Salt form ([3]; 60° C., 10 days, open flask) | Salt form ([3]; 60° C., 30 days, open flask) | Salt form ([3]; 75% RH, 5 days, open flask) | Salt form ([3]; 75% RH, 10 days, open flask) | Salt form ([3]; 75% RH, 30 days, open flask) | Salt form ([3]; 92.5% RH, 5 days, open flask) | Salt form ([3]; 92.5% RH, 10 days, open flask) | Salt form ([3]; 92.5% RH, 30 days, open flask) | Salt form [3, 13] | Salt form [3, 14] | Salt form [3, 15]
99.4%: Purity % [2, 12] | Purity % ([3]; 40° C., 10 days, open flask)
99.5%: Purity % [2, 10] | Purity % [2, 11]
good: chemical stability ([2]; 6 months) | physical stability ([2]; 6 months) | chemical stability under high humidity conditions ([3]; 30 days) | physical stability ([3]; 30 days)
96.2%: Purity % [3, 15]
99.1%: Purity % ([3]; 60° C., 10 days, open flask)
98.4%: Purity % [3, 14]
99.3%: Purity % ([3]; 60° C., 5 days, open flask)
99.6%: Purity % [2, 5] | Purity % [2, 6] | Purity % [2, 7] | Purity % [2, 8] | Purity % [2, 9] | Purity % ([2]; Initial) | Purity % ([3]; 40° C., 5 days, open flask) | Purity % ([3]; 75% RH, 5 days, open flask) | Purity % ([3]; 75% RH, 10 days, open flask)
